Reference: patent US20140335021A1, “Ocular Neostigmine Drops for Diagnosing Myasthenia Gravis” (priority 2013, published 2014)

Experiments:
[1] = system: patients with probable or definite MG; test: Ocular neostigmine drop test for ptosis in patients with probable or definite myasthenia gravis; assay type: in vivo, human
Experimental: (§1) 2) experiments in which the standard IV neostigmine solution was instilled into both eyes of patients with probable or definite symptomatic MG.
(§2) Both sets of experiments used the standard neostigmine (2.5 mg/ml) solution available in hospitals for anesthetic/surgical use for reversal of neuromuscular block. This solution is buffered and FDA-approved for use in humans. In both sets of experiments, one drop of this solution was used in an eye, limiting substantially the amount of drug that might be absorbed systemically.
Patients with probable or definite MG were asked to sign informed consent approved by the appropriate Institutional Ethics Committees. Ptosis was recorded photographically, and pulse and blood pressure were also recorded prior to beginning the test. One drop of standard IV neostigmine solution (2.5 mg/ml) was instilled into each symptomatic eye of the patient. Fifteen minutes later, possible changes in ptosis were assessed. Pulse and blood pressure was recorded again and after another 15 minutes. At 30 minutes, the patient was evaluated also for possible changes in ptosis (documented by photography), obvious irritation of either eye and for report of discomfort.
Six patients (3 males and 3 females) who presented with ptosis and/or ocular motility disturbance were enrolled in the study. Their ages ranged between 4.5 and 55 years (median=42 years, mean=36.4 years). […]

[2] = system: New Zealand White rabbits; test: Pupillary size after ocular instillation of neostigmine solution in rabbits; assay type: in vivo, rabbit; details: for mean [SD] pupillary size, right eye: saline left eye 7.0 mm, p=0.0001
Experimental: as §1, §2
Male New Zealand White rabbits (2.5-3.0 kg body weight) were used in all experiments. The animals were kept in a room of controlled room temperature (24.0+1.0° C.) and humidity and a fixed dark light cycle (light on at 7:00 am and off at 19:00 pm).
The sterile neostigmine solution (2.5 mg/ml) was instilled into the right eye (one drop), while the control eye (left eye) received one drop of sterile saline (0.9% sodium chloride). Assessment of pupillary size was done at 30 minute intervals following instillation of neostigmine. The left eye of each rabbit acted as control for the right one.
The amount of neostigmine methylsulphate was calculated to be 0.1 mg/drop. Therefore, each rabbit's eye was instilled by 0.1 mg of sterile neostigmine methylsulphate. The sterile dropper for instilling neostigmine was used only once and then discarded. To prevent the drop of neostigmine from leaking out of the rabbit's eye, the lower eye lid of the rabbits was held out for at least 2-3 minutes in order to keep the drop inside the eye and allow for better absorption of the drug through the cornea.
(§3) The pupil size of both the right and left eyes of each rabbit was measured at baseline in mms by using a plastic ruler. After instilling the neostigmine solution (right eye) or saline (left eye), the pupil size was measured again at 30 minute intervals following drug or saline instillation. One drop of neostimine was instilled daily for 7 days and signs of ocular inflammation were observed.
The mean values for the pupil sizes of the right eyes were recorded as well as those of the left eyes, separately. Paired t-test was used for comparison of data among the different groups on SPSS software. A probability value of <0.05 was considered to be significant.

[3] = system: New Zealand White rabbits; test: Ocular inflammation on daily instillation for 7 days in rabbits; assay type: in vivo; details: one drop daily for 7 days, rabbit eye
Experimental: as §1, §3

With `CN(C)C(=O)Oc1cccc([N+](C)(C)C)c1` [neostigmine, 3-(trimethylamino)phenyl N,N-dimethylcarbamate] the “response of ptosis (palpebral fissure height)” value ([1]; 3 patients with no prior treatment for MG (Patients 1, 2 and 5)) was “dramatic”, the “increase of the palpebral fissure height” value ([1]; all 6 patients with MG, 30 minutes after instillation of one drop 2.5 mg/ml per symptomatic eye) was “at least 2 mm” and the “pupil diameter, right eye, representative rabbit (FIG. 2)” value (“pupil diameter, right eye” for short) ([2]; 1 week after daily instillation of 1 drop, last drop 24 hours previously) was 6.0 mm. For the same compound, the “pupil diameter, right eye” value ([2]; 30 mins post neostigmine, pre 6.0 mm) was 2.0 mm, the “mean [SD] pupillary size, right eye” value ([2]; 30 minutes after one drop of 2.5 mg/ml solution (0.1 mg) in right eye, 30 rabbits) was 4.8 mm and the “pupil diameter, right eye” value ([2]; 60 mins post neostigmine, pre 6.0 mm) was 1.5 mm. The “mean [SD] pupillary size, right eye” value ([2]; 60 minutes after one drop of 2.5 mg/ml solution (0.1 mg) in right eye) was 4.8 mm and the ocular inflammation [3] was “no ocular inflammation”.
